“Also recorded” adds a separate entry of the source.
Test system: Plasmodium falciparum Dd2 (chloroquine-resistant)
Assay: In vitro drug susceptibility assay, Dd2 strain (flow cytometry, SYBR Green I / MitoTracker Deep Red)
Type: cell-based
Settings: Plasmodium falciparum, DD2, 72 h, asynchronous parasites, 72 h, 0.1-100 µM; read-out: IC50 ± SD PfDd2
Description: (§1) The cultures were maintained under an atmosphere of 5% CO2, 5% O2, and 90% N2. Fresh complete medium was provided daily, and rapid-stained (Panotico) blood smears were examined.
(§2) To evaluate the effects of synthetic compounds on the intraerythrocytic development of P. falciparum, we analyzed parasitemia by flow cytometry with 0.3% initial parasitemia and 1% hematocrit in the assay. Plates were incubated with the compounds at concentrations ranging from 0.10 to 100 µM for 72 h. Dual staining with SYBR Green I (SG-I) (Invitrogen, Waltham, MA, USA) and MitoTracker Deep Red (MT-Red) (Invitrogen) were used to label nucleic acids and mitochondria, respectively. Approximately 10,000 cells were counted by an Accuri C6 (Becton Dickinson, San Jose, CA, USA) and analyzed by FlowJo 5 software. Parasitemia was determined from the analysis of dot plots (side scatter versus fluorescence).
(§3) We determined the susceptibility of P. falciparum to the indole compounds and investigated whether CQR parasites responded differently to the compounds. […] We determined the IC50 values for each compound by analyzing viable and non-viable parasites after compound treatment, represented in dot plots (Figure 1H).

IC50 [µM]	Structure (SMILES)
35.4 ± 1.56	CCSc1[nH]c2ccccc2c1CC(=O)OC [Compound 17]
< 20	COC(=O)Cc1c(SC23CC4CC(CC(C4)C2)C3)[nH]c2ccccc12 [Compound 18]
39.9 ± 1.61	COC(=O)Cc1c(SCCCCO)[nH]c2ccccc12 [Compound 19]
< 20	CCCCCCCCCCCCSc1[nH]c2cc(Cl)ccc2c1CC(=O)OC [Compound 21]
45.5 ± 4.84	COC(=O)Cc1c(Sc2ccccc2)[nH]c2ccc(OC)cc12 [Compound 25]
35.8 ± 4.64	c1ccc(Cc2c(Sc3ccccc3)[nH]c3ccccc23)cc1 [Compound 26]

Same assay, conditions: Plasmodium falciparum, DD2, 72 h, read-out: IC50 ± SD PfDd2

Structure (SMILES)	IC50 [µM]
CCN(CC)CCCC(C)Nc1ccnc2cc(Cl)ccc12 (stereo not shown) [Chloroquine, reference compound]	0.199 ± 0.0262

Same assay, conditions: asynchronous parasites, 72 h, 0.1-100 µM; read-out: IC50 ± SD PfDd2

IC50 [µM]	Structure (SMILES)
15.7 ± 4.87	COC(=O)Cc1c(SC23CC4CC(CC(C4)C2)C3)[nH]c2ccccc12 [Compound 18]
16.9 ± 4.66	CCCCCCCCCCCCSc1[nH]c2cc(Cl)ccc2c1CC(=O)OC [Compound 21]

Test system: P. falciparum 3D7 strain
Assay: Blood-stage development evaluation by microscopy
Type: cell-based, Plasmodium falciparum
Settings: ring-stage synchronized 3D7, treated at IC50 (30 µM for 20 and 28), monitored every 12 h
Description: Ring-stage parasites (10–14 h) at 1% parasitemia in 2% hematocrit were treated with compound 20 and compound 28 at concentrations of 1 and 30 µM in 24-well plates for 48 h. Treatment with chloroquine (20 nM) and DMSO (0.1%) was used as positive and negative controls. Smears were rapid stained (Panotico) every 12 h after treatment (12, 24, 36, 48, and 60 h time points), and we took images of parasites to assess the blood-stage development (Zeiss, Oberkochen, Germany).
During monitoring, parasites continued to develop throughout the cycle in the presence of both compounds. […] To examine its stage specificity, we monitored development every 12 h.
Figure 5 Parasitemia reduction with compound 20 (A) and compound 28 (B) to determine the stage activity. Data are means ± SD. Ring-stage synchronized parasites with sorbitol 5% were treated with chloroquine (20 nM), compound 20 (30 µM), and compound 28 (30 µM). The chosen treatment concentration was the IC50 values obtained for these compounds against the 3D7 parasites. (C) After drug administration, smears of P. falciparum 3D7 strain were taken at 0, 12, 24, 36, 48, and 60 h after drug administration, observing the growth development of treated parasites. * p ≤ 0.05, ** p ≤ 0.01, *** p ≤ 0.001.

Structure (SMILES)	stage-specific effect on blood-stage development
COC(=O)Cc1c(SC23CC4CC(CC(C4)C2)C3)[nH]c2ccccc12 [Compound 18]	reduced the progress from rings to trophozoites; also recorded: affect ring to trophozoite progression
c1ccc(Cc2c(Sc3ccccc3)[nH]c3ccccc23)cc1 [Compound 26]	reduced the progress from rings to trophozoites; also recorded: affect ring to trophozoite progression

Test system: Plasmodium falciparum 3D7 (chloroquine-sensitive)
Assay: In vitro drug susceptibility assay, 3D7 strain (flow cytometry, SYBR Green I / MitoTracker Deep Red)
Type: cell-based
Settings: Plasmodium falciparum, 3D7, 72 h, asynchronous parasites, 72 h, 0.1-100 µM; read-out: IC50 ± SD Pf3D7
Description: as §1, §2, §3

IC50 [µM]	Structure (SMILES)
25 ± 2.9	CCSc1[nH]c2ccccc2c1CC(=O)OC [Compound 17]
< 20	COC(=O)Cc1c(SC23CC4CC(CC(C4)C2)C3)[nH]c2ccccc12 [Compound 18]
27.8 ± 2.03	COC(=O)Cc1c(SCCCCO)[nH]c2ccccc12 [Compound 19]
< 20	CCCCCCCCCCCCSc1[nH]c2cc(Cl)ccc2c1CC(=O)OC [Compound 21]
26.5 ± 4.87	COC(=O)Cc1c(Sc2ccccc2)[nH]c2ccc(OC)cc12 [Compound 25]
< 20	c1ccc(Cc2c(Sc3ccccc3)[nH]c3ccccc23)cc1 [Compound 26]

Same assay, conditions: Plasmodium falciparum, 3D7, 72 h, read-out: IC50 ± SD Pf3D7

Structure (SMILES)	IC50 [µM]
CCN(CC)CCCC(C)Nc1ccnc2cc(Cl)ccc12 (stereo not shown) [Chloroquine, reference compound]	0.0223 ± 0.00417

Same assay, conditions: asynchronous parasites, 72 h, 0.1-100 µM; read-out: IC50 ± SD Pf3D7

IC50 [µM]	Structure (SMILES)
13.5 ± 3.24	COC(=O)Cc1c(SC23CC4CC(CC(C4)C2)C3)[nH]c2ccccc12 [Compound 18]
19.1 ± 1.78	CCCCCCCCCCCCSc1[nH]c2cc(Cl)ccc2c1CC(=O)OC [Compound 21]
13.5 ± 2.37	c1ccc(Cc2c(Sc3ccccc3)[nH]c3ccccc23)cc1 [Compound 26]

Test system: P. falciparum 3D7 parasites
Assay: Effect of 2-sulfenylindoles in combination with 100 nM melatonin on parasitemia
Type: cell-based, Plasmodium falciparum
Settings: 500 nM compound + 100 nM melatonin, 3D7, 48 h
Description: (§4) To evaluate the role of the compounds in parasitemia, 1% 3D7 parasites in 2% hematocrit were incubated for 48 h with 500 nM of the 2-sulfenylindole derivatives. Melatonin (100 nM) was used as a positive control, and DMSO (0.0013% v/v) was used as a negative control. The concentration of DMSO chosen as control was the concentration present in the tested compounds at 500 nM. The activity of the compounds was measured by SG-I and MT-Red staining. The data obtained were normalized to those of the control (DMSO). Additionally, to test the ability of the compounds to affect melatonin activity in parasitemia, 3D7 parasites were incubated with 500 nM indole compounds along with 100 nM melatonin for 48 h.
Following the assumption that compounds resembling melatonin structure might interact through the melatonin signaling pathways, we evaluated the effect of the compounds on melatonin action on parasitemia. Our next step was to study the combination of 2-sulfenylindoles with melatonin in asynchronous 3D7 by incubating parasites simultaneously with 100 nM melatonin and 500 nM of each compound.

Structure (SMILES)	effect on melatonin action on parasitemia (in words)
COC(=O)Cc1c(Sc2ccccc2)[nH]c2ccc(OC)cc12 [Compound 25]	did not potentiate or block the effect of melatonin on parasitemia

Same assay, conditions: 3D7, 48 h, normalized to DMSO control

Structure (SMILES)	Parasitemia (%) Treatment with compound (500nM) + Melatonin (100nM) [%]
CCSc1[nH]c2ccccc2c1CC(=O)OC [Compound 17]	123.6 ± 3.11
COC(=O)Cc1c(SC23CC4CC(CC(C4)C2)C3)[nH]c2ccccc12 [Compound 18]	113.9 ± 2.90
COC(=O)Cc1c(SCCCCO)[nH]c2ccccc12 [Compound 19]	118.5 ± 2.85
CCCCCCCCCCCCSc1[nH]c2cc(Cl)ccc2c1CC(=O)OC [Compound 21]	111.9 ± 2.78
COC(=O)Cc1c(Sc2ccccc2)[nH]c2ccc(OC)cc12 [Compound 25]	112.8 ± 2.93
c1ccc(Cc2c(Sc3ccccc3)[nH]c3ccccc23)cc1 [Compound 26]	110.4 ± 3.18

Test system: not listed separately
Assay: Cytotoxicity assay (MTT)
Type: cell-based, human
Settings: human, HEK293T (HEK293) cells, 0.10-100 µM, read-out: CC50 ± SD HEK293
Description: HEK293T (human embryonic kidney) cells were cultured in 75 cm^2 vented tissue culture flasks (Greiner Bio-One, Frickenhausen, Germany) at 37 °C in a humidified atmosphere containing 5% CO2 in Dulbecco’s modified […] (Gibco) supplemented with 10% (v/v) fetal bovine serum (Gibco), 100 U/mL penicillin, and 100 μg/mL streptomycin (Sigma). Cytotoxicity was evaluated with the 4,5-dimethylthiazol-2-yl-2,5-diphenyltetrazolium bromide (MTT) cell proliferation assay. Briefly, 10^4 cells/well were seeded in flat-bottom 96-well plates in complete DMEM medium for 24 h, followed by incubation with different concentrations of each compound (0.10–100 µM) for 72 h. DMSO (0.13%) and digitonin were used as the negative and positive controls, respectively. The concentrations of DMSO chosen as control were the concentration present in the tested compounds (from 0.0001% to 0.12%, two-fold dilution). After 72 h, cells were then incubated with the MTT reagent for 3 h, and absorbance was measured at 570 nm using a FlexStation® 3 Multi-Mode Microplate Reader (Molecular Devices, Sunnyvale, CA, USA). Moreover, we calculated the selectivity indexes (SI) to understand whether the compounds were more toxic to parasites than cells, or vice versa, according to the ratio of the CC50 value to the IC50 value for each compound.
We further assessed the toxicity of 2-sulfenylindole compounds against HEK293 cells using the MTT assay with different concentrations of the compounds for 72 h. Table 1 presents all the toxicity data and summarizes the IC50 values of the compounds evaluated in this study for Dd2 and 3D7 strains.

Structure (SMILES)	CC50 at 72 h [µM]
CCSc1[nH]c2ccccc2c1CC(=O)OC [Compound 17]	26.5 ± 4.67
COC(=O)Cc1c(SC23CC4CC(CC(C4)C2)C3)[nH]c2ccccc12 [Compound 18]	16.8 ± 2.63
COC(=O)Cc1c(SCCCCO)[nH]c2ccccc12 [Compound 19]	28.1 ± 5.46
CCCCCCCCCCCCSc1[nH]c2cc(Cl)ccc2c1CC(=O)OC [Compound 21]	> 100
COC(=O)Cc1c(Sc2ccccc2)[nH]c2ccc(OC)cc12 [Compound 25]	13.1 ± 3.74
c1ccc(Cc2c(Sc3ccccc3)[nH]c3ccccc23)cc1 [Compound 26]	34.7 ± 8.44

Test system: P. falciparum 3D7 parasites
Assay: Effects of indole derivatives (500 nM) on parasitemia
Type: cell-based, Plasmodium falciparum
Settings: 500 nM compound alone, 3D7 asynchronous, 48 h
Description: as §4
After incubation, the final parasitemia was determined using flow cytometry.

Structure (SMILES)	effect on parasitemia (in words)
CCSc1[nH]c2ccccc2c1CC(=O)OC [Compound 17]	did not affect parasitemia
CCCCCCCCCCCCSc1[nH]c2cc(Cl)ccc2c1CC(=O)OC [Compound 21]	led to an increase in parasitemia
COC(=O)Cc1c(Sc2ccccc2)[nH]c2ccc(OC)cc12 [Compound 25]	led to an increase in parasitemia

Same assay, conditions: 500 nM compound, 3D7, 48 h, compared to DMSO control

Structure (SMILES)	decrease in parasitemia [%]
c1ccc(Cc2c(Sc3ccccc3)[nH]c3ccccc23)cc1 [Compound 26]	7.94

Same assay, conditions: 500 nM compound, 3D7, 48 h, compared to DMSO control (100.6%)

Structure (SMILES)	increase in parasitemia [%]
CCCCCCCCCCCCSc1[nH]c2cc(Cl)ccc2c1CC(=O)OC [Compound 21]	3.8
COC(=O)Cc1c(Sc2ccccc2)[nH]c2ccc(OC)cc12 [Compound 25]	6.6

Same assay, conditions: Plasmodium falciparum; 3D7, 48 h, normalized to DMSO control; read-out: Parasitemia (%) Treatment with compound (500nM)

Structure (SMILES)	activity at 0.5 µM [%]
CCSc1[nH]c2ccccc2c1CC(=O)OC [Compound 17]	98.6 ± 2.95
COC(=O)Cc1c(SC23CC4CC(CC(C4)C2)C3)[nH]c2ccccc12 [Compound 18]	98 ± 2.61
COC(=O)Cc1c(SCCCCO)[nH]c2ccccc12 [Compound 19]	100 ± 1.81
CCCCCCCCCCCCSc1[nH]c2cc(Cl)ccc2c1CC(=O)OC [Compound 21]	104.4 ± 1
COC(=O)Cc1c(Sc2ccccc2)[nH]c2ccc(OC)cc12 [Compound 25]	107 ± 2.46
c1ccc(Cc2c(Sc3ccccc3)[nH]c3ccccc23)cc1 [Compound 26]	92.7 ± 4.17

Reference: paper PMC9138683, “Decoding the Role of Melatonin Structure on Plasmodium falciparum Human Malaria Parasites Synchronization Using 2-Sulfenylindoles Derivatives” (Biomolecules, 2022)
